# Read-outs that look alike come from different tables or passages of the source.
# What was measured:
# Eggerthella lenta = experiment: MIC, clindamycin prodrugs; format: cell-based
# Veillonella atypical = experiment: MIC, clindamycin prodrugs; format: cell-based
# Bifidobacterium dentium = experiment: MIC, clindamycin prodrugs; format: cell-based
# Group C Streptococcus = experiment: MIC, clindamycin prodrugs; format: cell-based
# Staphylococcusaureus = experiment: MIC, clindamycin prodrugs; format: cell-based
# Corynebacterium jeikeium = details: antibiotic-susceptible clinical isolate
# Campylobacter coli = experiment: MIC, clindamycin prodrugs; format: cell-based; details: for MIC: Campylobacter coli
# [1] = test system: Staphylococcus epidermidis; experiment: MIC, clindamycin prodrugs; format: cell-based
# Bifidobacterium longum = experiment: MIC, clindamycin prodrugs; format: cell-based
# Prevotella denticola = details: clinical isolate
# [2] = Stability in simulated intestinal juice (FeSSIF); format: in vitro ADME; details: FeSSIF pH 5.0, pancreatin 1%
# Method: To avoid direct interaction between the active drug and the gut microfloral population, the prodrug should not undergo premature chemical or enzymic cleavage back to the parent dug while within the gut lumen. To confirm this the prodrugs were incubated with USP SGF (simulated gastric fluid), FeSSIF (fed state simulated intestinal fluid) and FaSSIF (fasted state simulated intestinal fluid) and remaining prodrug and any generated active drug assayed by use of a qualified LC-MS/MS analytical method.
# Pancreatin was again added at 1%.
# To minimize the direct inhibitory action of this drug on gastric emptying/gut motility—and resultant nausea—the prodrug should not undergo premature chemical or enzymic cleavage back to the parent drug while within the gut lumen. To confirm this, the prodrugs were incubated with USP SGF (simulated gastric fluid), FeSSIF (fed state simulated intestinal fluid) and FaSSIF (fasted state simulated intestinal fluid) and remaining prodrug, and any generated active drug, assayed by use of a qualified LC-MS/MS analytical method.
# To avoid direct interaction between the active drug and the gut, the prodrug should not undergo premature chemical or enzymic cleavage back to the parent dug while within the gut lumen. To confirm this the prodrugs were incubated with USP SGF (simulated gastric fluid), FeSSIF (fed state simulated intestinal fluid) and FaSSIF (fasted state simulated intestinal fluid) and remaining prodrug and any generated active drug assayed by use of a qualified LC-MS/MS analytical method.
# [3] = test system: Streptococcus constellatus; details: antibiotic-susceptible clinical isolate
# Campylobacter jejuni = experiment: MIC, clindamycin prodrugs; format: cell-based; details: for MIC: Campylobacter jejuni
# Bacteroides fragilis = experiment: MIC, clindamycin prodrugs; format: cell-based; details: for MIC: Bacteroides fragilis
# [4] = test system: Bifidobacterium adolescentis; experiment: MIC, clindamycin prodrugs; format: cell-based
# Streptococcus pyogenes = experiment: MIC, clindamycin prodrugs; format: cell-based
# Enterococcus faecium = details: vancomycin-susceptible clinical isolate
# Helicobacter pylori = experiment: MIC, clindamycin prodrugs; format: cell-based; details: for MIC: Helicobacter pylori
# Clostridium sporogenes = experiment: MIC, clindamycin prodrugs; format: cell-based; details: ATCC 3584
# Veillonella parvula = experiment: MIC, clindamycin prodrugs; format: cell-based
# Clostridium perfringens = experiment: microbe, parasite or virus in culture; format: cell-based; details: for MIC: Clostridium perfringens
# [5] = test system: Bacteroides thetaiotamicron; experiment: MIC, clindamycin prodrugs; format: cell-based; details: for MIC: Bacteroides
# Fusobacterium nucleatum = details: clinical isolate
# [6] = test system: Staphylococcus haemolyticus; experiment: MIC, clindamycin prodrugs; format: cell-based
# [7] = test system: Prevotella melaninogenicus; experiment: MIC, clindamycin prodrugs; format: cell-based
# [8] = test system: Porphyromonas endodontalis; details: clinical isolate
# Streptococcus pneumoniae = experiment: MIC, clindamycin prodrugs; format: cell-based; details: for MIC: Streptococcus pneumoniae
# Propionibacterium acnes = experiment: MIC, clindamycin prodrugs; format: cell-based; details: for MIC: Cutibacterium acnes
# Veillonella spp. = details: clinical isolate
# Enterococcus faecalis = details: ATCC 29212 antibiotic-susceptible type strain
# Listeria monocytogenes = details: antibiotic-susceptible clinical isolate
# Clostridium bifermentans = details: ATCC 638
# Streptococcus mitis = details: antibiotic-susceptible clinical isolate
# [9] = antibiotic-susceptible clinical isolate
# [10] = antibiotic susceptible clinical isolate
# [11] = methicillin-resistant clinical isolate
# [12] = Macrolide (MLS) resistant clinical isolate
# [13] = clinical isolate (second listed, r38)
# [14] = read-out: Minimum inhibitory concentration
compound,measurement,setting,value
"CCCC1CC(C(=O)NC(C(C)Cl)C2OC(SC)C(OC(=O)CCCC(=O)Nc3ccc(C(=O)O)cc3)C(O)C2O)N(C)C1.O=C(O)C(F)(F)F (stereo not shown) [Clindamycin glutaryl PABA ester, Clindamycin-2-(glutaryl-PABA) ester trifluoroacetate]",Minimum inhibitory concentration,Eggerthella lenta; ATCC 43055,16 µg/mL
same,Minimum inhibitory concentration,Eggerthella lenta; clinical isolate,16 µg/mL
same,Minimum inhibitory concentration,Veillonella atypical; NCTC 11830,4 µg/mL
same,Minimum inhibitory concentration,Bifidobacterium dentium; NCTC 11816,2 µg/mL
same,Minimum inhibitory concentration,Group C Streptococcus; [9],2 µg/mL
same,Minimum inhibitory concentration,Staphylococcusaureus; ATCC 25923 - antibiotic-susceptible type strain,4 µg/mL
same,Minimum inhibitory concentration,Staphylococcusaureus; ATCC 29213 - antibiotic-susceptible type strain,4 µg/mL
same,Minimum inhibitory concentration,Staphylococcusaureus; ATCC 43300 - methicillin-resistant type strain,>64 µg/mL
same,Minimum inhibitory concentration,Corynebacterium jeikeium,>64 µg/mL
same,Minimum inhibitory concentration,Campylobacter coli; ATCC 33559,≦0.03 ug/mL
same,Minimum inhibitory concentration,Campylobacter coli; clinical isolate,0.06 µg/mL
same,Minimum inhibitory concentration,[1]; [10],4 µg/mL
same,Minimum inhibitory concentration,[1]; [11],8 µg/mL
same,Minimum inhibitory concentration,Bifidobacterium longum; NCTC 11818,2 µg/mL
same,Minimum inhibitory concentration,Prevotella denticola,4 µg/mL
same,"Simulated intestinal juice (2 h, 37° C.) (FeSSIF) % active drug generated",[2],<1%
same,Minimum inhibitory concentration,[3],2 µg/mL
same,Minimum inhibitory concentration,Campylobacter jejuni; ATCC 33560,≦0.03 ug/mL
same,Minimum inhibitory concentration,Campylobacter jejuni; clinical isolate,≦0.03 ug/mL
same,Minimum inhibitory concentration,Bacteroides fragilis; ATCC 25285,64 µg/mL
same,Minimum inhibitory concentration,Bacteroides fragilis; clinical isolate,16 µg/mL
same,Minimum inhibitory concentration,[4]; NCTC 11814,2 µg/mL
same,Minimum inhibitory concentration,Streptococcus pyogenes; [12],4 µg/mL
same,Minimum inhibitory concentration,Streptococcus pyogenes; [9],2 µg/mL
same,Minimum inhibitory concentration,Enterococcus faecium,>64 µg/mL
same,Minimum inhibitory concentration,Helicobacter pylori; ATCC 43504,≦0.03 ug/mL
same,Minimum inhibitory concentration,Helicobacter pylori; clinical isolate (r56),≦0.03 ug/mL
same,Minimum inhibitory concentration,Helicobacter pylori; clinical isolate (r57),≦0.03 ug/mL
same,Minimum inhibitory concentration,Helicobacter pylori; clinical isolate (r100),≦0.03 ug/mL
same,Minimum inhibitory concentration,Helicobacter pylori; clinical isolate (r101),≦0.03 ug/mL
same,Minimum inhibitory concentration,Clostridium sporogenes,>64 µg/mL
same,Minimum inhibitory concentration,Veillonella parvula; NCTC 11810,4 µg/mL
same,Minimum inhibitory concentration,Clostridium perfringens; ATCC 13124,8 µg/mL
same,Minimum inhibitory concentration,Clostridium perfringens; [9],8 µg/mL
same,Minimum inhibitory concentration,[5]; ATCC 29741,>64 µg/mL
same,Minimum inhibitory concentration,[5]; NCTC 10582,>64 µg/mL
same,Minimum inhibitory concentration,Fusobacterium nucleatum,2 µg/mL
same,Minimum inhibitory concentration,[6]; [10],4 µg/mL
same,Minimum inhibitory concentration,"[7]; clinical isolate (first listed, r37)",0.5 µg/mL
same,Minimum inhibitory concentration,[7]; [13],1 µg/mL
same,Minimum inhibitory concentration,[8],0.12 µg/mL
same,Minimum inhibitory concentration,Streptococcus pneumoniae; ATCC 49619 antibiotic-susceptible type strain,2 µg/mL
same,Minimum inhibitory concentration,Streptococcus pneumoniae; penicillin-susceptible clinical isolate,1 µg/mL
same,Minimum inhibitory concentration,Propionibacterium acnes,8 µg/mL
same,Minimum inhibitory concentration,Propionibacterium acnes; clinical isolate MIC clindamycin 0.5 mg/L,8 µg/mL
same,Minimum inhibitory concentration,Veillonella spp.,1 µg/mL
same,Minimum inhibitory concentration,Enterococcus faecalis,>64 µg/mL
same,Minimum inhibitory concentration,Listeria monocytogenes,32 µg/mL
same,Minimum inhibitory concentration,Clostridium difficile; ATCC 700057,>64 µg/mL
same,Minimum inhibitory concentration,Clostridium difficile; NCTC 13366 - NAP1/027,>64 µg/mL
same,Minimum inhibitory concentration,Clostridium difficile; [9],>64 µg/mL
same,Minimum inhibitory concentration,Clostridium difficile; ribotype 002 - clinical isolate,>64 µg/mL
same,Minimum inhibitory concentration,Clostridium difficile; ribotype 011 - clinical isolate,>64 µg/mL
same,Minimum inhibitory concentration,Clostridium difficile; ribotype 027 - clinical isolate,>64 µg/mL
same,Minimum inhibitory concentration,Clostridium difficile; ribotype 050 - clinical isolate,>64 µg/mL
same,Minimum inhibitory concentration,Clostridium difficile; ribotype 176 - clinical isolate,>64 µg/mL
same,Minimum inhibitory concentration,Clostridium bifermentans,32 µg/mL
same,Minimum inhibitory concentration,Streptococcus mitis,0.5 µg/mL
"CCC[C@@H]1C[C@@H](C(=O)N[C@@H]([C@H]2O[C@H](SC)[C@H](O)[C@@H](O)[C@H]2O)[C@H](C)Cl)N(C)C1 [Clindamycin, clindamycin, reference compound]",MIC,"Veillonella atypical; Veillonella, NCTC11830, read-out: Minimum inhibitory concentration",0.06 µg/mL
same,MIC,"Bifidobacterium dentium; Bifidobacterium dentium, NCTC11816, read-out: Minimum inhibitory concentration",≤ 0.03 µg/mL
same,MIC,"Group C Streptococcus; Streptococcus, read-out: Minimum inhibitory concentration",≤ 0.03 µg/mL
same,MIC,"Staphylococcusaureus; read-out: Minimum inhibitory concentration, ATCC 25923 - antibiotic-susceptible type strain",0.06 µg/mL
same,MIC,"Staphylococcusaureus; read-out: Minimum inhibitory concentration, ATCC 29213 - antibiotic-susceptible type strain",0.06 µg/mL
same,MIC,"Staphylococcusaureus; read-out: Minimum inhibitory concentration, ATCC 43300 - methicillin-resistant type strain",> 64 µg/mL
same,MIC,"Campylobacter coli; ATCC33559, read-out: Minimum inhibitory concentration",≤ 0.03 µg/mL
same,MIC,Campylobacter coli; [14],0.06 µg/mL
same,MIC,"[1]; Staphylococcus epidermidis, read-out: Minimum inhibitory concentration",0.12 µg/mL
same,Minimum inhibitory concentration,[1]; [11],0.12 µg/mL
same,MIC,"Bifidobacterium longum; Bifidobacterium longum, NCTC11818, read-out: Minimum inhibitory concentration",0.12 µg/mL
same,MIC,"Campylobacter jejuni; ATCC33560, read-out: Minimum inhibitory concentration",≤ 0.03 µg/mL
same,MIC,Campylobacter jejuni; [14],≤ 0.03 µg/mL
same,MIC,"Bacteroides fragilis; ATCC25285, read-out: Minimum inhibitory concentration",0.5 µg/mL
same,MIC,Bacteroides fragilis; [14],0.12 µg/mL
same,MIC,"[4]; Bifidobacterium adolescentis, NCTC11814, read-out: Minimum inhibitory concentration",≤ 0.03 µg/mL
same,Minimum inhibitory concentration,Streptococcus pyogenes; [12],≦0.03 ug/mL
same,MIC,"Streptococcus pyogenes; Streptococcus pyogenes, read-out: Minimum inhibitory concentration",≤ 0.03 µg/mL
same,MIC,"Helicobacter pylori; ATCC43504, read-out: Minimum inhibitory concentration",≤ 0.03 µg/mL
same,MIC,Helicobacter pylori; [14],≤ 0.03 µg/mL
same,Minimum inhibitory concentration,Helicobacter pylori; clinical isolate (r56),≦0.03 ug/mL
same,Minimum inhibitory concentration,Helicobacter pylori; clinical isolate (r57),≦0.03 ug/mL
same,Minimum inhibitory concentration,Helicobacter pylori; clinical isolate (r101),≦0.03 ug/mL
same,MIC,"Clostridium sporogenes; Clostridium sporogenes, ATCC3584, read-out: Minimum inhibitory concentration",32 µg/mL
same,MIC,"Veillonella parvula; Veillonella parvula, NCTC11810, read-out: Minimum inhibitory concentration",≤ 0.03 µg/mL
same,MIC,"Clostridium perfringens; ATCC13124, read-out: Minimum inhibitory concentration",0.06 µg/mL
same,MIC,Clostridium perfringens; [14],0.06 µg/mL
same,MIC,"[5]; ATCC29741, read-out: Minimum inhibitory concentration",2 µg/mL
same,MIC,"[5]; NCTC10582, read-out: Minimum inhibitory concentration",1 µg/mL
same,MIC,"[6]; Staphylococcus haemolyticus, read-out: Minimum inhibitory concentration",0.06 µg/mL
same,MIC,"[7]; Prevotella, read-out: Minimum inhibitory concentration",≤ 0.03 µg/mL
same,Minimum inhibitory concentration,[7]; [13],≦0.03 ug/mL
same,MIC,"Streptococcus pneumoniae; ATCC49619, read-out: Minimum inhibitory concentration",≤ 0.03 µg/mL
same,MIC,Streptococcus pneumoniae; [14],≤ 0.03 µg/mL
same,MIC,"Propionibacterium acnes; read-out: Minimum inhibitory concentration, clinical isolate MIC clindamycin 0.5 mg/L",0.12 µg/mL
same,MIC,"Propionibacterium acnes; read-out: Minimum inhibitory concentration, clinical isolate MIC clindamycin […]",0.06 µg/mL

# From patent US20120202756A1, “USE OF PRODRUGS TO AVOID GI MEDIATED ADVERSE EVENTS” (priority 2009, published 2012)
